Experiments:
[1] = Example 2.1 rhamnolipid precipitation, filtration, centrifugation: lead; settings: for Treatment 2: Rhamnolipid and Filtration Cf / Treatment 3: Rhamnolipid and Centrifugation Cc / Treatment 1: Rhamnolipid Only Cr: lead concentration after treatment
Description: (§1) Structural variants of synthetic glycolipids were used to show the effect of the number and length of the hydrophobic tail(s) on rhamnolipid as a chemical precipitant. […] Solutions (10 mM) were made using nanopure water (≥18 MΩ-cm) then adjusted to a pH of 6.9±0.05 with HNO3 and NaOH. These solutions were made in advance and stored in the cold room for up to one month. They were brought to room temperature before each experiment.
(§2) Three metals were tested for binding with rhamnolipid. Lead as […] (Fisher Scientific, Waltham, MA, 99% purity), was chosen to represent a metal with high rhamnolipid-metal conditional stability constant; lanthanum as La(NO3)3 6(H2O) (Sigma-Aldrich, St. Louis, MO, 99.99% purity) was chosen as a representative REE; and magnesium as Mg(NO3)2 6(H2O) (Sigma-Aldrich, St. Louis, MO, 99% purity) was chosen to represent a metal with a low rhamnolipid-metal conditional stability constant (Hogan et al., 2017). Metal solutions (5 mM) were made using nanopure water (≥18 MΩ-cm) in 20 ml glass scintillation vials. All solutions were used within 15 min to ensure minimal adsorption to the glass vial.
(§3) Three glycolipid-based treatments were evaluated to remove metal from solution: (1) the addition of glycolipid with no further treatment (gravitational precipitation), (2) the addition of a glycolipid followed by filtration or (3) the addition of a glycolipid followed by centrifugation. Each metal (Pb, La, and Mg) was evaluated separately with each of the glycolipid structures. For each experiment, a metal solution was mixed with a glycolipid solution in a 1.7 ml reaction tube at varying molar ratios of glycolipid to metal: 0:1 (glycolipid-free control), 2:1, 5:1, and 10:1. The reactions were mixed in the order of nanopure water (≥18 MΩ-cm), glycolipid solution (10 mM), then metal solution (5 mM). The metal and glycolipid solutions were continuously stirred as they were aliquoted into the reaction tubes. The experiment was performed in triplicate.
(§4) The reaction tubes were mixed overnight (16 to 24 h) and then three samples were collected from each tube to measure the effect of each of the three treatments: a glycolipid only treatment sample, a filtration treatment sample, and a centrifugation treatment sample. Briefly, for the glycolipid only treatment samples all tubes were vortexed for approximately 5 sec immediately before removing 0.1 ml into a dilution tube of 2% trace metal grade nitric acid (12 to 14 ml) to minimize the settling of particles. For the filtration samples each reaction tube was vortexed for 5 sec and then a 0.6 ml aliquot was collected with a 1 ml syringe. A GHP acrodisc disk filter (hydrophilic polypropylene membrane, 0.45 μm pore size, 25 mm disc diameter) from Pall Life Sciences (Port Washington, New York) was then placed onto the end of the syringe and the solution was pushed through the filter. The void space in the disk filter holds approximately 0.5 ml, therefore around 0.1 ml of filtrate was collected into a dilution tube. For the centrifugation sample, the remaining solution was centrifuged at 10,000 RCF for 15 min. Approximately 0.1 ml of the supernatant was aliquoted into a dilution tube. Following collection, all samples were taken for metal analysis using ICP-MS.

[2] = Example 2.1 rhamnolipid precipitation, filtration, centrifugation: magnesium; settings: for Treatment 2: Rhamnolipid and Filtration Cf / Treatment 3: Rhamnolipid and Centrifugation Cc / Treatment 1: Rhamnolipid Only Cr: magnesium concentration after treatment; for Treatment 1: Rhamnolipid Only (Rr) efficiency of removal / Treatment 2: Rhamnolipid and Filtration (Rf) efficiency of removal / Treatment 3: Rhamnolipid and Centrifugation (Rc) efficiency of removal: magnesium
Description: as §1, §2, §3, §4

[3] = Example 2.1 rhamnolipid precipitation, filtration, centrifugation: lanthanum; settings: for Treatment 2: Rhamnolipid and Filtration Cf / Treatment 3: Rhamnolipid and Centrifugation Cc / Treatment 1: Rhamnolipid Only Cr: lanthanum concentration after treatment
Description: as §1, §2, §3, §4

Compound: CCCC(CC(=O)O)OC1O[C@@H](C)[C@H](O)[C@@H](O)[C@H]1O (stereo partly drawn) [Rha C6]
- Treatment 2: Rhamnolipid and Filtration Cf ([1]; molar ratio 2 to 1): 0.115 ± 0.022 mmol/L
- Treatment 3: Rhamnolipid and Centrifugation Cc ([1]; molar ratio 2 to 1): 0.313 ± 0.003 mmol/L
- Treatment 1: Rhamnolipid Only Cr ([1]; molar ratio 5 to 1): 0.329 ± 0.014 mmol/L
- Treatment 2: Rhamnolipid and Filtration Cf ([1]; molar ratio 5 to 1): 0.046 ± 0.017 mmol/L
- Treatment 3: Rhamnolipid and Centrifugation Cc ([1]; molar ratio 5 to 1): 0.322 ± 0.004 mmol/L
- Treatment 1: Rhamnolipid Only Cr ([1]; molar ratio 10 to 1): 0.316 ± 0.008 mmol/L
- Treatment 2: Rhamnolipid and Filtration Cf ([1]; molar ratio 10 to 1): 0.119 ± 0.018 mmol/L
- Treatment 3: Rhamnolipid and Centrifugation Cc ([1]; molar ratio 10 to 1): 0.323 ± 0.005 mmol/L
- Treatment 1: Rhamnolipid Only Cr ([1]; molar ratio rhamnolipid:lead 2 to 1): 0.323 ± 0.005 mmol/L
- Treatment 2: Rhamnolipid and Filtration (Rf) efficiency of removal ([1]; lead, molar ratio 2 to 1): (64.0%)
- Treatment 3: Rhamnolipid and Centrifugation (Rc) efficiency of removal ([1]; lead, molar ratio 2 to 1): (2.2%)
- Treatment 2: Rhamnolipid and Filtration (Rf) efficiency of removal ([1]; lead, molar ratio 5 to 1): (85.8%)
- Treatment 1: Rhamnolipid Only (Rr) efficiency of removal ([1]; lead, molar ratio 10 to 1): (1.4%)
- Treatment 2: Rhamnolipid and Filtration (Rf) efficiency of removal ([1]; lead, molar ratio 10 to 1): (62.7%)
- Treatment 2: Rhamnolipid and Filtration Cf ([2]; molar ratio 2 to 1): 0.202 ± 0.016 mmol/L
- Treatment 3: Rhamnolipid and Centrifugation Cc ([2]; molar ratio 2 to 1): 0.265 ± 0.010 mmol/L
- Treatment 1: Rhamnolipid Only Cr ([2]; molar ratio 5 to 1): 0.248 ± 0.013 mmol/L
- Treatment 2: Rhamnolipid and Filtration Cf ([2]; molar ratio 5 to 1): 0.178 ± 0.020 mmol/L
- Treatment 3: Rhamnolipid and Centrifugation Cc ([2]; molar ratio 5 to 1): 0.255 ± 0.001 mmol/L
- Treatment 1: Rhamnolipid Only Cr ([2]; molar ratio 10 to 1): 0.258 ± 0.011 mmol/L
- Treatment 2: Rhamnolipid and Filtration Cf ([2]; molar ratio 10 to 1): 0.165 ± 0.001 mmol/L
- Treatment 3: Rhamnolipid and Centrifugation Cc ([2]; molar ratio 10 to 1): 0.272 ± 0.016 mmol/L
- Treatment 1: Rhamnolipid Only Cr ([2]; molar ratio rhamnolipid:magnesium 2 to 1): 0.247 ± 0.014 mmol/L
- Treatment 1: Rhamnolipid Only (Rr) efficiency of removal ([2]; molar ratio 2 to 1): (7.6%)
- Treatment 2: Rhamnolipid and Filtration (Rf) efficiency of removal ([2]; molar ratio 2 to 1): (24.5%)
- Treatment 3: Rhamnolipid and Centrifugation (Rc) efficiency of removal ([2]; molar ratio 2 to 1): (0.9%)
- Treatment 1: Rhamnolipid Only (Rr) efficiency of removal ([2]; molar ratio 5 to 1): (7.3%)
- Treatment 2: Rhamnolipid and Filtration (Rf) efficiency of removal ([2]; molar ratio 5 to 1): (33.4%)
- Treatment 3: Rhamnolipid and Centrifugation (Rc) efficiency of removal ([2]; molar ratio 5 to 1): (4.9%)
- Treatment 1: Rhamnolipid Only (Rr) efficiency of removal ([2]; molar ratio 10 to 1): (3.6%)
- Treatment 2: Rhamnolipid and Filtration (Rf) efficiency of removal ([2]; molar ratio 10 to 1): (38.2%)
- Treatment 2: Rhamnolipid and Filtration Cf ([3]; molar ratio 2 to 1): 0.143 ± 0.062 mmol/L
- Treatment 3: Rhamnolipid and Centrifugation Cc ([3]; molar ratio 2 to 1): 0.324 ± 0.018 mmol/L
- Treatment 1: Rhamnolipid Only Cr ([3]; molar ratio 5 to 1): 0.282 ± 0.026 mmol/L
- Treatment 2: Rhamnolipid and Filtration Cf ([3]; molar ratio 5 to 1): 0.106 ± 0.026 mmol/L
- Treatment 3: Rhamnolipid and Centrifugation Cc ([3]; molar ratio 5 to 1): 0.320 ± 0.024 mmol/L
- Treatment 1: Rhamnolipid Only Cr ([3]; molar ratio 10 to 1): 0.332 ± 0.040 mmol/L
- Treatment 2: Rhamnolipid and Filtration Cf ([3]; molar ratio 10 to 1): 0.114 ± 0.064 mmol/L
- Treatment 3: Rhamnolipid and Centrifugation Cc ([3]; molar ratio 10 to 1): 0.294 ± 0.010 mmol/L
- Treatment 1: Rhamnolipid Only Cr ([3]; molar ratio rhamnolipid:lanthanum 2 to 1): 0.325 ± 0.026 mmol/L
- Treatment 2: Rhamnolipid and Filtration (Rf) efficiency of removal ([3]; lanthanum, molar ratio 2 to 1): (51.8%)
- Treatment 1: Rhamnolipid Only (Rr) efficiency of removal ([3]; lanthanum, molar ratio 5 to 1): (5.2%)
- Treatment 2: Rhamnolipid and Filtration (Rf) efficiency of removal ([3]; lanthanum, molar ratio 5 to 1): (64.4%)
- Treatment 2: Rhamnolipid and Filtration (Rf) efficiency of removal ([3]; lanthanum, molar ratio 10 to 1): (61.6%)
- Treatment 3: Rhamnolipid and Centrifugation (Rc) efficiency of removal ([3]; lanthanum, molar ratio 10 to 1): (1.1%)

Source: US20240182513A1, “SEPARATION OF METAL IONS FROM A SAMPLE USING GLYCOLIPIDS” (ARIZONA BOARD OF REGENTS ON BEHALF OF THE UNIVERSITY OF …, priority 2021, published 2024)
